# Measurements: ChEMBL document CHEMBL1136378, “Novel 6,7-diphenyl-2,3,8,8a-tetrahydro-1H-indolizin-5-one analogues as cytotoxic agents” (Bioorg Med Chem Lett, 2003)
# Key:
# DU-145 [1] = experiment: In vitro cytotoxic activity tested against human prostate cancer (DU145) cell line; assay type: functional
# NCI/ADR-RES [2] = experiment: In vitro cytotoxic activity tested against human breast cancer MCF/ADR cell line
# [3] = Average growth inhibition against cell lines was calculated; assay type: functional
# U-251 = experiment: In vitro cytotoxic activity tested against human CNS (U251) cell line; assay type: functional
# SW-620 [4] = experiment: In vitro cytotoxic activity tested against human colon cancer (SW620) cell line; assay type: functional
# A498 [5] = experiment: In vitro cytotoxic activity was tested against human renal cancer (A498) cell line; assay type: functional
# M14 [6] = experiment: In vitro cytotoxic activity was tested against human melanoma cancer (M14) cell line; assay type: functional
# NCI-H522 [7] = experiment: In vitro cytotoxic activity tested against human lung cancer (H-522) cell line
# SK-OV-3 [8] = experiment: In vitro cytotoxic activity tested against human ovarian cancer (SK-OV3) cell line; assay type: functional
# NCI-H522 [9] = experiment: In vitro cytotoxic activity against human lung cancer (H-522) cell line
# SK-OV-3 [10] = experiment: In vitro cytotoxic activity against human ovarian cancer (SK-OV3) cell line; assay type: functional
# [11] = Tmax value was determined at a dose of 200 mg/kg (i.p.) in Mice; assay type: ADME, organism-based; parameters: dose 200 mg/kg, route intraperitoneal; conditions: mouse, in vivo, ip
# [12] = Half life beta(2,4,6,8h) value was determined at a dose of 200 mg/kg (i.p.) in Mice; assay type: ADME, organism-based; parameters: dose 200 mg/kg, route intraperitoneal; conditions: mouse, in vivo, ip, read-out: T1/2 beta (converted)
# [13] = Area under curve was determined at a dose of 200 mg/kg (i.p.) in Mice; assay type: ADME, organism-based; parameters: dose 200 mg/kg, route intraperitoneal; conditions: mouse, in vivo, ip
# M14 [14] = experiment: In vitro cytotoxic activity against human melanoma cancer (M14) cell line; assay type: functional
# DU-145 [15] = experiment: In vitro cytotoxic activity against human prostate cancer (DU145) cell line; assay type: functional
# [16] = Cmax value was determined at a dose of 200 mg/kg (i.p.) in Mice; assay type: ADME, organism-based; parameters: dose 200 mg/kg, route intraperitoneal; conditions: mouse, in vivo, ip
# NCI/ADR-RES [17] = experiment: In vitro cytotoxic activity against human breast cancer MCF/ADR cell line; assay type: functional
# SW-620 [18] = experiment: In vitro cytotoxic activity against human colon cancer (SW620) cell line; assay type: functional
# A498 [19] = experiment: In vitro cytotoxic activity against human renal cancer (A498) cell line; assay type: functional
Tmax [11] [h],half-life [12] [min],AUC [13] [µM·h],Cmax [16] [nM],SMILES,GI50 (DU-145 [1]) [µM],GI50 (NCI/ADR-RES [2]) [µM],GI50 [3] [µM],GI50 (U-251) [µM],GI50 (SW-620 [4]) [µM],GI50 (A498 [5]) [µM],GI50 (M14 [6]) [µM],GI50 (NCI-H522 [7]) [µM],GI50 (SK-OV-3 [8]) [µM],GI50 (NCI-H522 [9]) [nM],GI50 (SK-OV-3 [10]) [µM],GI50 (M14 [14]) [µM],GI50 (DU-145 [15]) [nM],GI50 (NCI/ADR-RES [17]) [nM],GI50 (SW-620 [18]) [nM],GI50 (A498 [19]) [µM]
,,,,COc1ccc(C2=C(c3ccc(SC)cc3)CC3CCCN3C2=O)cc1Br (stereo not given),0.9,6,2.5,0.8,5,0.6,3,0.7,3,,,,,,,
,,,,COc1ccc(C2=C(c3cc(OC)c(OC)c(OC)c3)CC3CCCN3C2=O)cc1O (stereo not given),> 100,> 100,> 100,> 100,> 100,> 100,> 100,> 100,> 100,,,,,,,
0.25,160,10.7,3790,CSc1ccc(C2=C(c3ccc(C(F)(F)F)cc3)C(=O)N3CCCC3C2)cc1 (stereo not given),,,6.3,0.8,,,,,,800,15,12,700,800,800,20
,,,,COc1ccc(C2=C(c3ccc(SC)cc3)CC3CCCN3C2=O)cc1C (stereo not given),0.9,0.4,2.1,0.09,0.5,0.4,0.2,0.1,15,,,,,,,
,,,,COc1ccc(/C=C\c2cc(OC)c(OC)c(OC)c2)cc1O [COMBRETASTATIN A4],,0.09,0.103,0.006,0.005,0.61,0.0001,0.007,< 0.0001,,,,,,,
,,,,CSc1ccc(C2=C(c3ccc(O)cc3)C(=O)N3CCCC3C2)cc1 (stereo not given),> 100,> 100,> 100,> 100,> 100,> 100,> 100,> 100,> 100,,,,,,,
1,,2.5,860,CSc1ccc(C2=C(c3ccc(SC)cc3)C(=O)N3CCCC3C2)cc1 (stereo not given),8,8,8.1,5,7,15,5,15,2,,,,,,,
,,,,COc1ccc(C2=C(c3ccc(SC)cc3)CC3CCCN3C2)cc1O (stereo not given),> 100,> 100,> 100,> 100,> 100,> 100,> 100,> 100,> 100,,,,,,,
,,,,CSc1ccc(C2=C(c3ccc(O)c(O)c3)C(=O)N3CCCC3C2)cc1 (stereo not given),60,80,60,30,50,,,60,80,,,,,,,
1.5,155,3.88,990,CSc1ccc(C2=C(c3ccc(F)cc3)C(=O)N3CCCC3C2)cc1 (stereo not given),0.5,0.8,4.1,0.09,0.5,0.1,0.6,0.25,30,,,,,,,
,,,,COc1ccc(C2=C(c3ccc(OC)c(OC)c3)C(=O)N3CCCC3C2)cc1OC (stereo not given),> 100,> 100,> 100,> 100,> 100,> 100,> 100,> 100,> 100,,,,,,,
,,,,CSc1ccc(C2=C(c3ccc(Br)cc3)C(=O)N3CCCC3C2)cc1 (stereo not given),9,8,7.8,7,7,7,9,7,9,,,,,,,
,,,,COc1cc(C2=C(c3ccc(SC)cc3)CC3CCCN3C2=O)ccc1O (stereo not given),8,8,7.75,8,9,5,9,7,8,,,,,,,
